The structures appear in SMILES notation.

This assay concerns Wnt activity (wnt-responsive SP5 promoter luciferase reporter in SW480 cells). Briefly: Wnt activity reporter assay (SP5 promoter-firefly luciferase in SW480 cells). Particulars: Homo sapiens; SW480 colon cancer cells with SP5 promoter luciferase reporter; 24 h after compound addition; half-log dilutions, three micromolar top concentration; normalized to DMSO; read-out: Wnt inhibition. Format: cell-based. An excerpt:
The above synthesized compounds were screened using the assay procedure for Wnt activity described below.
Reporter cell lines were generated by stably transducing cells of cancer cell lines (e.g., colon cancer) with a lentiviral construct that include a wnt-responsive promoter driving expression of the firefly luciferase gene.
Lentiviral constructs were made in which the SP5 promoter, a promoter having eight TCF/LEF binding sites derived from the SP5 promoter, was linked upstream of the firefly luciferase gene. The lentiviral constructs included a hygromycin resistance gene as a selectable marker. The SP5 promoter construct was used to transduce SW480 cells, a colon cancer cell line having a mutated APC gene that generates a truncated APC protein, leading to de-regulated accumulation of β-catenin.
Cultured SW480 cells bearing a reporter construct were distributed at approximately 10,000 cells per well into 384 well multiwell plates. Compounds were then added to the wells in half-log dilutions using a three micromolar top concentration. A series of control wells for each cell type received only buffer and compound solvent. Twenty-four hours after the addition of compound, reporter activity for luciferases was assayed, for example, by addition of the BrightGlo luminescence reagent (Promega) and the Victor3 plate reader (Perkin Elmer). Readings were normalized to DMSO only treated cells, and normalized activities were then used for the IC50 calculations.
(In a reporter assay the amount or activity of a reporter protein is the signal.)

As to `Cc1ccncc1-c1ccc2[nH]nc(-c3nc4c(-c5ccc(F)cc5)cccc4[nH]3)c2c1` [Compound 29, 3-(4-(4-Fluorophenyl)-1H-benzo[d]imidazol-2-yl)-5-(4-methylpyridin-3-yl)-1H-indazole], the IC50 came to 100 nM.

Turning to `CCCCC(=O)Nc1cncc(-c2ccc3[nH]nc(-c4nc5c(-n6cnc(C)c6)cccc5[nH]4)c3c2)c1` [Compound 186, N-(5-(3-(4-(4-Methyl-1H-imidazol-1-yl)-1H-benzo[d]imidazol-2-yl)-1H-indazol-5-yl)pyridin-3-yl)pentanamide], the IC50 amounted to 6 nM.

Regarding `O=C(Nc1cncc(-c2ccc3[nH]nc(-c4nc5c(-c6ccc(F)cc6)cccc5[nH]4)c3c2)c1)C1CC1` [Compound 43, N-(5-(3-(4-(4-Fluorophenyl)-1H-benzo[d]imidazol-2-yl)-1H-indazol-5-yl)pyridin-3-yl)cyclopropanecarboxamide], the IC50 was determined as 43 nM.

In the case of `c1cc(N2CCCCC2)c2nc(-c3n[nH]c4ccc(-c5cncc(CN6CCCC6)c5)cc34)[nH]c2c1` [Compound 158, 3-(4-(Piperidin-1-yl)-1H-benzo[d]imidazol-2-yl)-5-(5-(pyrrolidin-1-ylmethyl)pyridin-3-yl)-1H-indazole], the IC50 turned out to be 116 nM.

With `CC(C)C(=O)Nc1cncc(-c2ccc3[nH]nc(-c4nc5c(-c6ccccn6)cccc5[nH]4)c3c2)c1` [Compound 129, N-(5-(3-(4-(Pyridin-2-yl)-1H-benzo[d]imidazol-2-yl)-1H-indazol-5-yl)pyridin-3-yl)isobutyramide], the IC50 is 21 nM.

For the compound `c1ccc(-c2cccc3[nH]c(-c4n[nH]c5ccc(-c6cncc(CNCC7CCCC7)c6)cc45)nc23)nc1` [Compound 144, 1-Cyclopentyl-N-((5-(3-(4-(pyridin-2-yl)-1H-benzo[d]imidazol-2-yl)-1H-indazol-5-yl)pyridin-3-yl)methyl)methanamine], the IC50 is 1180 nM.

For the compound `Cc1cn(-c2cccc3[nH]c(-c4n[nH]c5ccc(-c6cnccc6C)cc45)nc23)cn1` [Compound 173], the IC50 came out at 46 nM.

With `O=C(Cc1ccccc1)Nc1cncc(-c2ccc3[nH]nc(-c4nc5c(-c6ccncc6)cccc5[nH]4)c3c2)c1` [Compound 106, 2-Phenyl-N-(5-(3-(4-(pyridin-4-yl)-1H-benzo[d]imidazol-2-yl)-1H-indazol-5-yl)pyridin-3-yl)acetamide], the IC50 was determined as 1930 nM.

For the compound `Fc1ccc(-c2cccc3[nH]c(-c4n[nH]c5ccc(-c6cncc(CN7CCCC7)c6)cc45)nc23)cc1` [Compound 38, 3-(4-(4-Fluorophenyl)-1H-benzo[d]imidazol-2-yl)-5-(5-(pyrrolidin-1-ylmethyl)pyridin-3-yl)-1H-indazole], the IC50 came out at 153 nM.

In the case of `CC(C)(C)CC(=O)Nc1cncc(-c2ccc3[nH]nc(-c4nc5ccccc5[nH]4)c3c2)c1` [Compound 232, N-(5-(3-(1H-Benzo[d]imidazol-2-yl)-1H-indazol-5-yl)pyridin-3-yl)-3,3-dimethylbutanamide], the IC50 turned out to be 65 nM.

Take `c1cc(-c2ccncc2)c2nc(-c3n[nH]c4ccc(-c5cncc(CN6CCCC6)c5)cc34)[nH]c2c1` [Compound 110, 3-(4-(Pyridin-4-yl)-1H-benzo[d]imidazol-2-yl)-5-(5-(pyrrolidin-1-ylmethyl)pyridin-3-yl)-1H-indazole]: the IC50 is 205 nM.

On to `c1cc(-c2ccsc2)c2nc(-c3n[nH]c4ccc(-c5cncc(CN6CCCC6)c5)cc34)[nH]c2c1` [Compound 254, 5-(5-(Pyrrolidin-1-ylmethyl)pyridin-3-yl)-3-(4-(thiophen-3-yl)-1H-benzo[d]imidazol-2-yl)-1H-indazole], for which the IC50 stood at 2 nM.

Turning to `CCCC(=O)Nc1cncc(-c2ccc3[nH]nc(-c4nc5c(N6CCN(C)CC6)cccc5[nH]4)c3c2)c1` [Compound 209, N-(5-(3-(4-(4-Methylpiperazin-1-yl)-1H-benzo[d]imidazol-2-yl)-1H-indazol-5-yl)pyridin-3-yl)butyramide], the IC50 is 61 nM.

On to `CC(C)(C)C(=O)Nc1cncc(-c2ccc3[nH]nc(-c4nc5c(-c6ccc(F)cc6)cccc5[nH]4)c3c2)c1` [Compound 32, N-(5-(3-(4-(4-Fluorophenyl)-1H-benzo[d]imidazol-2-yl)-1H-indazol-5-yl)pyridin-3-yl)pivalamide], for which the IC50 is 35 nM.

For the compound `Cc1ccncc1-c1ccc2[nH]nc(-c3nc4c(N5CCN(C)CC5)cccc4[nH]3)c2c1` [Compound 197, 3-(4-(4-Methylpiperazin-1-yl)-1H-benzo[d]imidazol-2-yl)-5-(4-methylpyridin-3-yl)-1H-indazole], the IC50 came out at 249 nM.

Regarding `O=C(Nc1cncc(-c2ccc3[nH]nc(-c4nc5ccccc5[nH]4)c3c2)c1)C1CCCCC1` [Compound 238, N-(5-(3-(1H-Benzo[d]imidazol-2-yl)-1H-indazol-5-yl)pyridin-3-yl) cyclohexanecarboxamide], the IC50 was determined as 147 nM.

Consider `CC(C)(C)C(=O)Nc1cncc(-c2ccc3[nH]nc(-c4nc5c(-c6ccoc6)cccc5[nH]4)c3c2)c1` [Compound 272, N-(5-(3-(4-(Furan-3-yl)-1H-benzo[d]imidazol-2-yl)-1H-indazol-5-yl)pyridin-3-yl)pivalamide], for which the IC50 amounted to 159 nM.

Regarding `O=C(Nc1cncc(-c2ccc3[nH]nc(-c4nc5c(-c6cccc(F)c6)cccc5[nH]4)c3c2)c1)C1CCCCC1` [Compound 22, N-(5-(3-(4-(3-Fluorophenyl)-1H-benzo[d]imidazol-2-yl)-1H-indazol-5-yl)pyridin-3-yl)cyclohexanecarboxamide], the IC50 came to 180 nM.

For the compound `CN1CCN(c2cccc3[nH]c(-c4n[nH]c5ccc(-c6cncc(NC(=O)C(C)(C)C)c6)cc45)nc23)CC1` [Compound 200, N-(5-(3-(4-(4-Methylpiperazin-1-yl)-1H-benzo[d]imidazol-2-yl)-1H-indazol-5-yl)pyridin-3-yl)pivalamide], the IC50 is 76 nM.

As for `O=C(Nc1cncc(-c2ccc3[nH]nc(-c4nc5c(-c6ccccc6F)cccc5[nH]4)c3c2)c1)C1CCCC1` [Compound 69, N-(5-(3-(4-(2-Fluorophenyl)-1H-benzo[d]imidazol-2-yl)-1H-indazol-5-yl)pyridin-3-yl)cyclopentanecarboxamide], the IC50 was determined as 23 nM.

As to `c1cc(-c2ccoc2)c2nc(-c3n[nH]c4ccc(-c5cncc(CN6CCCCC6)c5)cc34)[nH]c2c1` [Compound 279, 3-(4-(Furan-3-yl)-1H-benzo[d]imidazol-2-yl)-5-(5-(piperidin-1-ylmethyl)pyridin-3-yl)-1H-indazole], the IC50 was found to be 418 nM.

As for `CCNCc1cncc(-c2ccc3[nH]nc(-c4nc5c(-c6ccccc6F)cccc5[nH]4)c3c2)c1` [Compound 54, N-((5-(3-(4-(2-Fluorophenyl)-1H-benzo[d]imidazol-2-yl)-1H-indazol-5-yl)pyridin-3-yl)methyl)ethanamine], the IC50 worked out at 46 nM.

With `Fc1ccccc1-c1cccc2[nH]c(-c3n[nH]c4ccc(-c5cncc(CN6CCCCC6)c5)cc34)nc12` [Compound 63, 3-(4-(2-Fluorophenyl)-1H-benzo[d]imidazol-2-yl)-5-(5-(piperidin-1-ylmethyl)pyridin-3-yl)-1H-indazole], the IC50 was found to be 10 nM.

Take `O=C(Nc1cncc(-c2ccc3[nH]nc(-c4nc5c(N6CCCCC6)cccc5[nH]4)c3c2)c1)c1ccccc1` [Compound 155, N-(5-(3-(4-(Piperidin-1-yl)-1H-benzo[d]imidazol-2-yl)-1H-indazol-5-yl)pyridin-3-yl)benzamide]: the IC50 is 289 nM.

The values are drawn from US10654832B2, “3-(benzoimidazol-2-YL)-indazole inhibitors of the Wnt signaling pathway and therapeutic uses thereof” (Samumed, LLC, priority 2013, dated 2020).
